Source: PubChem BioAssay AID2060599 (Molecular Pharmacology Branch, DTP, NCI, 2025)

Tested on: 817829-284-R-J1-PDC complex spheroids, viability
Assay: Anticancer human tumor 817829-284-R-J1-PDC patient-derived colon adenocarcinoma cell line growth inhibition [CLK]
Settings: for IC50: curve of first compound; for viability, T/C: stronger effect = lower value
Outline: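 Multi-cell-type spheroids combined patient-derived tumor cells with HUVEC endothelial cells and human mesenchymal stem cells. Paired agents were dosed in half-log steps down from about clinical Cmax, or from 10 microM where Cmax was unknown.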

[1] = second compound 0.0316 µM, first compound 0.0316 µM
[2] = second compound 0.0316 µM, first compound 0.1 µM
[3] = second compound 0.0316 µM, first compound 0.316 µM
[4] = second compound 0.0316 µM, first compound 1 µM
[5] = second compound 0.0316 µM, first compound 3.16 µM
[6] = second compound 0.0316 µM, first compound 10 µM
[7] = second compound 0.1 µM, first compound 0.0316 µM
[8] = second compound 0.1 µM, first compound 0.1 µM
[9] = second compound 0.1 µM, first compound 0.316 µM
[10] = second compound 0.1 µM, first compound 1 µM
[11] = second compound 0.1 µM, first compound 3.16 µM
[12] = second compound 0.1 µM, first compound 10 µM
[13] = second compound 0.316 µM, first compound 0.0316 µM
[14] = second compound 0.316 µM, first compound 0.1 µM
[15] = second compound 0.316 µM, first compound 0.316 µM
[16] = second compound 0.316 µM, first compound 1 µM
[17] = second compound 0.316 µM, first compound 3.16 µM
[18] = second compound 0.316 µM, first compound 10 µM
[19] = second compound 1 µM, first compound 0.0316 µM
[20] = second compound 1 µM, first compound 0.1 µM
[21] = second compound 1 µM, first compound 0.316 µM
[22] = second compound 1 µM, first compound 1 µM
[23] = second compound 1 µM, first compound 3.16 µM
[24] = second compound 1 µM, first compound 10 µM
[25] = second compound 3.16 µM, first compound 0.0316 µM
[26] = second compound 3.16 µM, first compound 0.1 µM
[27] = second compound 3.16 µM, first compound 0.316 µM
[28] = second compound 3.16 µM, first compound 1 µM
[29] = second compound 3.16 µM, first compound 3.16 µM
[30] = second compound 3.16 µM, first compound 10 µM
[31] = second compound 10 µM, first compound 0.0316 µM
[32] = second compound 10 µM, first compound 0.1 µM
[33] = second compound 10 µM, first compound 0.316 µM
[34] = second compound 10 µM, first compound 1 µM
[35] = second compound 10 µM, first compound 3.16 µM
[36] = second compound 10 µM, first compound 10 µM
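Further: spheroids exposed to the agents for seven days before readout.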

CC(CO)NC(=O)c1cc(-c2ccc(Cl)cc2)nn(-c2cnn(C)c2)c1=O (stereo not drawn) + CNC(=O)c1ccc(Nc2nc(OC3CCCC3)c3c(-c4ccc5nc(C)oc5c4)c[nH]c3n2)c(OC)c1
IC50 (second compound 0.0316 µM): < 31.6 nM
IC50 (second compound 0.1 µM): < 31.6 nM
IC50 (second compound 0.316 µM): < 31.6 nM
IC50 (second compound 1 µM): < 31.6 nM
IC50 (second compound 3.16 µM): < 31.6 nM
IC50 (second compound 10 µM): < 31.6 nM
viability, T/C [1]: 38.7%
viability, T/C [2]: 34.8%
viability, T/C [3]: 32.9%
viability, T/C [4]: 31%
viability, T/C [5]: 28.5%
viability, T/C [6]: 23.4%
viability, T/C [7]: 24.2%
viability, T/C [8]: 23.8%
viability, T/C [9]: 27.7%
viability, T/C [10]: 21.3%
viability, T/C [11]: 39.8%
viability, T/C [12]: 21.4%
viability, T/C [13]: 27.4%
viability, T/C [14]: 29.7%
viability, T/C [15]: 24.1%
viability, T/C [16]: 24.7%
viability, T/C [17]: 16.1%
viability, T/C [18]: 19.2%
viability, T/C [19]: 14.1%
viability, T/C [20]: 36.8%
viability, T/C [21]: 16%
viability, T/C [22]: 16.2%
viability, T/C [23]: 15.8%
viability, T/C [24]: 10.7%
viability, T/C [25]: 22.3%
viability, T/C [26]: 20.2%
viability, T/C [27]: 18.7%
viability, T/C [28]: 17.9%
viability, T/C [29]: 18.6%
viability, T/C [30]: 19.4%
viability, T/C [31]: 24.3%
viability, T/C [32]: 16.7%
viability, T/C [33]: 41.6%
viability, T/C [34]: 18.7%
viability, T/C [35]: 14.1%
viability, T/C [36]: 16.8%

O=c1[nH]cc(F)c(=O)[nH]1 + CNC(=O)c1ccc(Nc2nc(OC3CCCC3)c3c(-c4ccc5nc(C)oc5c4)c[nH]c3n2)c(OC)c1
IC50 (second compound 0.0316 µM): < 31.6 nM
IC50 (second compound 0.1 µM): < 31.6 nM
IC50 (second compound 0.316 µM): < 31.6 nM
IC50 (second compound 1 µM): < 31.6 nM
IC50 (second compound 3.16 µM): < 31.6 nM
IC50 (second compound 10 µM): < 31.6 nM
viability, T/C [1]: 37.3%
viability, T/C [2]: 39.1%
viability, T/C [3]: 24.6%
viability, T/C [4]: 38.4%
viability, T/C [5]: 29.1%
viability, T/C [6]: 22.6%
viability, T/C [7]: 19.2%
viability, T/C [8]: 24%
viability, T/C [9]: 22.7%
viability, T/C [10]: 22.6%
viability, T/C [11]: 18.5%
viability, T/C [12]: 17.6%
viability, T/C [13]: 17.6%
viability, T/C [14]: 26.6%
viability, T/C [15]: 17.4%
viability, T/C [16]: 23.1%
viability, T/C [17]: 15%
viability, T/C [18]: 12.6%
viability, T/C [19]: 17.2%
viability, T/C [20]: 16.8%
viability, T/C [21]: 16.9%
viability, T/C [22]: 11.3%
viability, T/C [23]: 13.3%
viability, T/C [24]: 7%
viability, T/C [25]: 18.9%
viability, T/C [26]: 20.1%
viability, T/C [27]: 13.6%
viability, T/C [28]: 14.7%
viability, T/C [29]: 10.8%
viability, T/C [30]: 7.07%
viability, T/C [31]: 20.7%
viability, T/C [32]: 22.1%
viability, T/C [33]: 17.8%
viability, T/C [34]: 11.7%
viability, T/C [35]: 7.79%
viability, T/C [36]: 7.22%

C=C(F)C(=O)N1CCN(c2nc(OCC3CCCN3C)nc3c2CCN(c2cccc4cccc(Cl)c24)C3)CC1CC#N (stereo not drawn) + CN1CCN(c2cc(C(=O)Nc3cc4cc(-c5cnn(C)c5)ccc4cn3)ccn2)CC1
IC50 (second compound 0.0316 µM): 1600 nM
IC50 (second compound 0.1 µM): < 31.6 nM
IC50 (second compound 0.316 µM): < 31.6 nM
IC50 (second compound 1 µM): < 31.6 nM
IC50 (second compound 3.16 µM): < 31.6 nM
IC50 (second compound 10 µM): < 31.6 nM
viability, T/C [1]: 79.5%
viability, T/C [2]: 71.8%
viability, T/C [3]: 63.4%
viability, T/C [4]: 79.5%
viability, T/C [5]: 16.2%
viability, T/C [6]: 0.06%
viability, T/C [7]: 24.5%
viability, T/C [8]: 29.8%
viability, T/C [9]: 16.7%
viability, T/C [10]: 22.5%
viability, T/C [11]: 9.48%
viability, T/C [12]: 0.04%
viability, T/C [13]: 2.04%
viability, T/C [14]: 2.26%
viability, T/C [15]: 2.74%
viability, T/C [16]: 2.59%
viability, T/C [17]: 0.76%
viability, T/C [18]: 0.04%
viability, T/C [19]: 0.15%
viability, T/C [20]: 0.11%
viability, T/C [21]: 0.11%
viability, T/C [22]: 0.11%
viability, T/C [23]: 0.84%
viability, T/C [24]: 0.05%
viability, T/C [25]: 0.2%
viability, T/C [26]: 0.19%
viability, T/C [27]: 0.2%
viability, T/C [28]: 0.15%
viability, T/C [29]: 0.11%
viability, T/C [30]: 0.08%
viability, T/C [31]: 0.1%
viability, T/C [32]: 0.11%
viability, T/C [33]: 0.19%
viability, T/C [34]: 0.21%
viability, T/C [35]: 0.2%
viability, T/C [36]: 0.16%

Nc1ccccc1NC(=O)c1ccc(CNC(=O)OCc2cccnc2)cc1 + CN1CCN(c2cc(C(=O)Nc3cc4cc(-c5cnn(C)c5)ccc4cn3)ccn2)CC1
IC50 (second compound 0.0316 µM): 223 nM
IC50 (second compound 0.1 µM): < 31.6 nM
IC50 (second compound 0.316 µM): < 31.6 nM
IC50 (second compound 1 µM): < 31.6 nM
IC50 (second compound 3.16 µM): < 31.6 nM
IC50 (second compound 10 µM): < 31.6 nM
viability, T/C [1]: 61.1%
viability, T/C [2]: 70.6%
viability, T/C [3]: 39.5%
viability, T/C [4]: 21.9%
viability, T/C [5]: 3.59%
viability, T/C [6]: 0.06%
viability, T/C [7]: 15.1%
viability, T/C [8]: 14.2%
viability, T/C [9]: 13.4%
viability, T/C [10]: 5.61%
viability, T/C [11]: 0.84%
viability, T/C [12]: 0.03%
viability, T/C [13]: 1.55%
viability, T/C [14]: 1.54%
viability, T/C [15]: 1.41%
viability, T/C [16]: 0.56%
viability, T/C [17]: 0.03%
viability, T/C [18]: 0.03%
viability, T/C [19]: 0.11%
viability, T/C [20]: 0.14%
viability, T/C [21]: 0.11%
viability, T/C [22]: 0.1%
viability, T/C [23]: 0.05%
viability, T/C [24]: 0.06%
viability, T/C [25]: 0.1%
viability, T/C [26]: 0.12%
viability, T/C [27]: 0.15%
viability, T/C [28]: 0.15%
viability, T/C [29]: 0.16%
viability, T/C [30]: 0.22%
viability, T/C [31]: 0.04%
viability, T/C [32]: 0.07%
viability, T/C [33]: 0.1%
viability, T/C [34]: 0.3%
viability, T/C [35]: 0.1%
viability, T/C [36]: 0.1%
